Read-outs that look alike come from different tables or passages of the source.
Assays:
A-549 = experiment: Cytotoxicity, A-549; details: Homo sapiens, A549, read-out: Compound Cytotoxicity (IC50, nM)
MCF-7 = experiment: Cytotoxicity, MCF-7; details: Homo sapiens, MCF7, read-out: Compound Cytotoxicity (IC50, nM)
SKBr3 cells = experiment: Cytotoxicity against SKBr3 cells (CellTiter-Glo, 72 h); details: Homo sapiens, SK-BR-3, 72 h, read-out: Cytotoxicity against SKBr3 Cells (IC50, nM)
Experimental: Cytotoxicity was determined with SKBr3 cells (ATCC HTB-30), a breast cancer cell line. […] Cells were plated into 96-well microtiter back plates at 4,000 cells per 50 μL per well, overnight. Serial 10× dilutions of test compound (10 μM to 0.1 μM) in cell culture media were prepared with a Biomek 2000 apparatus, using the protocols of deeper-1000 μL, media and deeper-1000 μL-dilution. 50 μL of each dilution was added to wells containing cells. Each compound or control (medium only) was tested in duplicate. For each assay, the wells contained a final volume of 100 μL (50 μL of cells and 50 μL of compound dilution). After incubating for 72 h, the plates were let stand at room temperature for 30 min. CellTiter-Glo Luminescent Reagent (Promega #G7573) (100 μL) was added to each well. The well contents were mixed for 5 min and the plates were kept at room temperature for another 30 min. Luminescence was recorded using a Wallac VICTOR^2 Multilabel Counter (PerkinElmer) and IC50 values were determined using Kaleidagraph software (Synergy Software).

CCRF-CEM/taxol = experiment: Cytotoxicity, CCRF-CEM/taxol; details: Homo sapiens, read-out: Compound Cytotoxicity (IC50, nM)
SKOV-3 = experiment: Cytotoxicity, SKOV-3; details: Homo sapiens, SK-OV-3, read-out: Compound Cytotoxicity (IC50, nM)
CCRF-CEM = experiment: Cytotoxicity, CCRF-CEM; details: Homo sapiens, read-out: Compound Cytotoxicity (IC50, nM)
CCRF-CEM/VP-16 = experiment: Cytotoxicity, CCRF-CEM/VP-16; details: Homo sapiens, read-out: Compound Cytotoxicity (IC50, nM)
HL-60/MX2 = experiment: Cytotoxicity, HL-60/MX2; details: Homo sapiens, HL60/MX2, read-out: Compound Cytotoxicity (IC50, nM)
CCRF-CEM/VBL = experiment: Cytotoxicity, CCRF-CEM/VBL; details: Homo sapiens, read-out: Compound Cytotoxicity (IC50, nM)
Hsp90 = Hsp90 (Homo sapiens, UniProt P07900); experiment: Hsp90 binding (filter binding assay)
[1] = filter binding assay, read-out: Hsp90 Binding (Kd)

SMILES | IC50 (A-549) [nM] | IC50 (MCF-7) [nM] | IC50 (SKBr3 cells) [nM] | IC50 (CCRF-CEM/taxol) [nM] | IC50 (SKOV-3) [nM] | IC50 (CCRF-CEM) [nM] | IC50 (CCRF-CEM/VP-16) [nM] | IC50 (HL-60/MX2) [nM] | IC50 (CCRF-CEM/VBL) [nM] | Kd (Hsp90) [nM] | Kd (Hsp90; [1]) [nM]
CO[C@H]1[C@@H](OC)C[C@H](C)CC2=C(N3CCC3)C(=O)C=C(NC(=O)/C(C)=C/C=C\[C@H](OC)[C@@H](OC(N)=O)/C(C)=C/[C@@H]1C)C2=O [Compound I-a, 11-O-methyl-17-(1-azetidinyl)-17-demethoxygeldanamycin] | 29 | 63 | 24 | 2500 | 110 | 420 | 1400 | 600 | 2500 | 4000 | 
CO[C@H]1[C@@H](OC)C[C@H](C)CC2=C(NCCN(C)C)C(=O)C=C(NC(=O)/C(C)=C/C=C\[C@H](OC)[C@@H](OC(N)=O)/C(C)=C/[C@@H]1C)C2=O [Compound I-b, 11-O-methyl-17-(2-dimethylaminoethyl)amino-17-demethoxy-geldanamycin] | 23 | 50 | 12 | 390 | 43 | 58 | 65 | 62 | 960 |  | 800
CO[C@H]1[C@@H](OC)C[C@H](C)CC2=C(NCCc3c[nH]cn3)C(=O)C=C(NC(=O)/C(C)=C/C=C\[C@H](OC)[C@@H](OC(N)=O)/C(C)=C/[C@@H]1C)C2=O [Compound I-h, 11-O-methyl-17-(2-(4-imidazolyl)ethyl)amino-17-demethoxy-geldanamycin] | 420 | 160 | 60 | 3000 | 320 | 510 | 2500 | 2500 | > 5000 |  | 2000
C=CCNC1=C2C[C@@H](C)C[C@H](OC)[C@H](OC)[C@@H](C)/C=C(\C)[C@H](OC(N)=O)[C@@H](OC)/C=C\C=C(/C)C(=O)NC(=CC1=O)C2=O [Compound I-g, 11-O-methyl-17-allylamino-17-demethoxygeldanamycin] | 360 | 760 | 280 | 3500 | 1300 | 2500 | 4000 | 3000 | > 5000 |  | 2800
COC1=C2C[C@@H](C)C[C@H](OC)[C@H](O)[C@@H](C)/C=C(\C)[C@H](OC(N)=O)[C@@H](OC)/C=C\C=C(/C)C(=O)NC(=CC1=O)C2=O [Geldanamycin] |  |  | 23 |  |  |  |  |  |  |  | 
CO[C@H]1[C@@H](OC)C[C@H](C)CC2=C(NCCN3CC3)C(=O)C=C(NC(=O)/C(C)=C/C=C\[C@H](OC)[C@@H](OC(N)=O)/C(C)=C/[C@@H]1C)C2=O [Compound I-d, 11-O-methyl-17-(2-(1-aziridinyl)ethyl)amino-17-demethoxygelda-namycin] |  |  | 36 |  |  |  |  |  |  | 2100 | 
CO[C@H]1[C@@H](OC)C[C@H](C)CC2=C(NCCN3CCC3)C(=O)C=C(NC(=O)/C(C)=C/C=C\[C@H](OC)[C@@H](OC(N)=O)/C(C)=C/[C@@H]1C)C2=O [Compound I-i, 11-O-methyl-17-(2-(1-azetidinyl)ethyl)amino 17-demethoxy-geldanamycin] | 26 | 51 | 130 | 510 | 65 | 85 | 140 | 110 | 2500 |  | 960
COC1=C2C[C@@H](C)C[C@H](OC)[C@H](OC)[C@@H](C)/C=C(\C)[C@H](OC(N)=O)[C@@H](OC)/C=C\C=C(/C)C(=O)NC(=CC1=O)C2=O [Compound I-e, 11-O-methyl-geldanamycin] |  |  | 9.1 |  |  |  |  |  |  |  | 490
CO[C@H]1[C@@H](OC)C[C@H](C)CC2=C(NCCF)C(=O)C=C(NC(=O)/C(C)=C/C=C\[C@H](OC)[C@@H](OC(N)=O)/C(C)=C/[C@@H]1C)C2=O [Compound I-c, 11-O-methyl-17-(2-fluoroethyl)amino-17-demethoxygeldana-mycin] | 67 | 58 | 250 | 2700 | 460 | 960 | 2500 | 440 | 2500 | 2300 | 
CO[C@H]1[C@@H](OC)C[C@H](C)CC2=C(N)C(=O)C=C(NC(=O)/C(C)=C/C=C\[C@H](OC)[C@@H](OC(N)=O)/C(C)=C/[C@@H]1C)C2=O [Compound I-f] | 37 | 350 | 84 | 850 | 200 | 250 | 530 | 930 | 2500 |  | 320
CO[C@H]1[C@@H](OC)C[C@H](C)CC2=C(NCCN3CCCC3)C(=O)C=C(NC(=O)/C(C)=C/C=C\[C@H](OC)[C@@H](OC(N)=O)/C(C)=C/[C@@H]1C)C2=O [Compound I-j, 11-O-methyl-17-(2-(1-pyrrolidinyl)ethyl)amino-17-demethoxygeldanamycin] | 62 | 76 | 160 | 520 | 69 | 160 | 170 | 98 | 2500 |  | 960

Source: US6855705B1, “11-O-methylgeldanamycin compounds” (Kosan Biosciences, Inc., priority 2003, dated 2005)
